Reference: patent publication US20260232767A1, “INTERLEUKIN-23 RECEPTOR ANTAGONIST PEPTIDES FOR USE IN THE TREATMENT OF PSORIASIS” (Janssen Pharmaceutica NV, priority 2023, published 2026)

System: subjects with moderate-to-severe plaque psoriasis
Assay: Safety, adverse events, Example 2 through Week 56
Type: in vivo, human
Details: 50 mg QD
Source text: The LTE safety analysis was based on randomized participants in Example who entered the present long-term extension study and received at least one dose of study intervention (including a partial dose) during the study period.

`CC(=O)NCCCC[C@@H]1NC(=O)[C@H](Cc2c[nH]c3c(C)cccc23)NC(=O)[C@H]([C@@H](C)O)NC(=O)[C@H](CC(N)=O)NC(=O)[C@@H](NC(C)=O)C(C)(C)SSC(C)(C)[C@@H](C(=O)N[C@@H](Cc2ccc(OCCN)cc2)C(=O)N[C@@H](Cc2ccc3ccccc3c2)C(=O)NC2(C(=O)N[C@@H](CCC(=O)O)C(=O)N[C@@H](CC(N)=O)C(=O)N[C@@H](Cc3cccnc3)C(=O)N(C)CC(N)=O)CCOCC2)NC1=O` [IL-23 receptor antagonist peptide, Ac-[Pen]*-N-T-[W(7-Me)]-[Lys(Ac)]-[Pen]*-Phe[4-(2-aminoethoxy)]-[2-Nal]-[THP]-E-N-[3-Pal]-Sarc-NH2 (*[Pen]-[Pen]* formdisulfidebond)] was tested, and the “Subjects with AE leading to discontinuation: Insomnia” value (Week 16-56) was 0, the “Subjects with AE leading to discontinuation: Investigations” value (Week 16-56) was 0 and the “Subjects with AE leading to discontinuation: Nervous system disorders” value (Week 16-56) was 0. For the same compound, the “Subjects with AE leading to discontinuation: Proctalgia” value (Week 16-56) was 0, the “Subjects with AE leading to discontinuation: Psoriasis” value (Week 16-56) was 0 and the “Subjects with AE leading to discontinuation: Psychiatric disorders” value (Week 16-56) was 0. For the same compound, the “Subjects with AE leading to discontinuation: Skin and subcutaneous tissue disorders” value (Week 16-56) was 0, the “Subjects with AE leading to discontinuation: Vertigo” value (Week 16-56) was 0 and the “Subjects with AE leading to discontinuation: Vomiting” value (Week 16-56) was 0. For the same compound, the “Subjects with COVID-19 associated AE of interest: SARS-CoV-2 test positive” value (Week 16-56) was 0, the “Subjects with treatment-emergent AE: Headache” value (Week 16-56) was 0 and the “Subjects with treatment-emergent AE: Meniscus injury” value (Week 16-56) was 0. The “Subjects with treatment-emergent AE: Nervous system disorders” value (Week 16-56) was 0, the “Subjects with treatment-emergent AE: Vomiting” value (Week 16-56) was 0 and the “Subjects with treatment-emergent serious AE: Cerebrovascular accident” value (Week 16-56) was 0. For the same compound, the “Subjects with treatment-emergent serious AE: Diverticulitis” value (Week 16-56) was 0, the “Subjects with treatment-emergent serious AE: Infections and infestations” value (Week 16-56) was 0 and the “Subjects with treatment-emergent serious AE: Injury, poisoning and procedural complications” value (Week 16-56) was 0. The “Subjects with treatment-emergent serious AE: Intervertebral disc protrusion” value (Week 16-56) was 0, the “Subjects with treatment-emergent serious AE: Ligament injury” value (Week 16-56) was 0 and the “Subjects with treatment-emergent serious AE: Neoplasms benign, malignant and unspecified (incl cysts and polyps)” value (Week 16-56) was 0. For the same compound, the “Subjects with treatment-emergent serious AE: Nervous system disorders” value (Week 16-56) was 0, the “Subjects with treatment-emergent serious AE: Respiratory, thoracic and mediastinal disorders” value (Week 16-56) was 0 and the “Subjects with treatment-emergent serious AE: Tonsillar hypertrophy” value (Week 16-56) was 0. The “Subjects with treatment-emergent serious AE: Uterine leiomyoma” value (Week 16-56) was 0, the “Subjects with treatment-emergent serious AE: Ventricular dysfunction” value (Week 16-56) was 0 and the “Acrochordon: number of subjects” value (through Week 56) was 0. For the same compound, the “Actinic keratosis: % of subjects” value (through Week 56) was “(2.3%)”, the “Actinic keratosis: number of subjects” value (through Week 56) was 1 and the “Alopecia: number of subjects” value (through Week 56) was 0. The “Asthenia: number of subjects” value (through Week 56) was 0, the “Asthma: number of subjects” value (through Week 56) was 0 and the “Atrioventricular block first degree: number of subjects” value (through Week 56) was 0. The “Basal cell carcinoma: % of subjects” value (through Week 56) was “(2.3%)”, the “Basal cell carcinoma: number of subjects” value (through Week 56) was 1 and the “Blood and lymphatic system disorders: % of subjects” value (through Week 56) was “(7.0%)”. For the same compound, the “Blood and lymphatic system disorders: number of subjects” value (through Week 56) was 3, the “Bronchitis chronic: number of subjects” value (through Week 56) was 0 and the “Bundle branch block right: number of subjects” value (through Week 56) was 0. The “Cardiac disorders: % of subjects” value (through Week 56) was “(2.3%)”, the “Cardiac disorders: number of subjects” value (through Week 56) was 1 and the “Chills: number of subjects” value (through Week 56) was 0. The “Cholelithiasis: number of subjects” value (through Week 56) was 0, the “Chronic obstructive pulmonary disease: number of subjects” value (through Week 56) was 0 and the “Coronary artery disease: % of subjects” value (through Week 56) was “(2.3%)”. The “Coronary artery disease: number of subjects” value (through Week 56) was 1, the “Cough: % of subjects” value (through Week 56) was “(4.7%)” and the “Cough: number of subjects” value (through Week 56) was 2. For the same compound, the “Decreased appetite: number of subjects” value (through Week 56) was 0, the “Depression: number of subjects” value (through Week 56) was 0 and the “Dermal cyst: number of subjects” value (through Week 56) was 0. For the same compound, the “Dermatitis acneiform: number of subjects” value (through Week 56) was 0, the “Dermatitis contact: % of subjects” value (through Week 56) was “(2.3%)” and the “Dermatitis contact: number of subjects” value (through Week 56) was 1. For the same compound, the “Diabetes mellitus: number of subjects” value (through Week 56) was 0, the “Diffuse alopecia: number of subjects” value (through Week 56) was 0 and the “Dysuria: number of subjects” value (through Week 56) was 0. For the same compound, the “Ear and labyrinth disorders: number of subjects” value (through Week 56) was 0, the “Endocrine disorders: number of subjects” value (through Week 56) was 0 and the “Eye disorders: number of subjects” value (through Week 56) was 0. The “Eyelid skin dryness: number of subjects” value (through Week 56) was 0, the “Fatigue: % of subjects” value (through Week 56) was “(2.3%)” and the “Fatigue: number of subjects” value (through Week 56) was 1. The “General disorders and administration site conditions: % of subjects” value (through Week 56) was “(7.0%)”, the “General disorders and administration site conditions: number of subjects” value (through Week 56) was 3 and the “Goiter: number of subjects” value (through Week 56) was 0. For the same compound, the “Haemochromatosis: number of subjects” value (through Week 56) was 0, the “Hand dermatitis: number of subjects” value (through Week 56) was 0 and the “Hematuria: % of subjects” value (through Week 56) was “(2.3%)”. The “Hematuria: number of subjects” value (through Week 56) was 1, the “Hepatobiliary disorders: number of subjects” value (through Week 56) was 0 and the “Hypercholesterolemia: number of subjects” value (through Week 56) was 0. The “Hyperglycemia: % of subjects” value (through Week 56) was “(2.3%)”, the “Hyperglycemia: number of subjects” value (through Week 56) was 1 and the “Hyperlipidemia: number of subjects” value (through Week 56) was 0. For the same compound, the “Hypertension: % of subjects” value (through Week 56) was “(2.3%)”, the “Hypertension: number of subjects” value (through Week 56) was 1 and the “Hypertransaminasemia: number of subjects” value (through Week 56) was 0. The “Hypertriglyceridemia: number of subjects” value (through Week 56) was 0, the “Hypoacusis: number of subjects” value (through Week 56) was 0 and the “Immune system disorders: % of subjects” value (through Week 56) was “(2.3%)”. The “Immune system disorders: number of subjects” value (through Week 56) was 1, the “Influenza like illness: number of subjects” value (through Week 56) was 0 and the “Insomnia: number of subjects” value (through Week 56) was 0. The “Intertrigo: number of subjects” value (through Week 56) was 0, the “Ketonuria: number of subjects” value (through Week 56) was 0 and the “Leukocyturia: number of subjects” value (through Week 56) was 0. For the same compound, the “Leukopenia: % of subjects” value (through Week 56) was “(2.3%)”, the “Leukopenia: number of subjects” value (through Week 56) was 1 and the “Libido decreased: number of subjects” value (through Week 56) was 0. For the same compound, the “Liver disorder: number of subjects” value (through Week 56) was 0, the “Lymphopenia: % of subjects” value (through Week 56) was “(4.7%)” and the “Lymphopenia: number of subjects” value (through Week 56) was 2. For the same compound, the “Menopause: % of subjects” value (through Week 56) was “(2.3%)”, the “Menopause: number of subjects” value (through Week 56) was 1 and the “Metabolism and nutrition disorders: % of subjects” value (through Week 56) was “(2.3%)”. The “Metabolism and nutrition disorders: number of subjects” value (through Week 56) was 1, the “Neoplasms benign, malignant and unspecified (incl cysts and polyps): % of subjects” value (through Week 56) was “(4.7%)” and the “Neoplasms benign, malignant and unspecified (incl cysts and polyps): number of subjects” value (through Week 56) was 2. For the same compound, the “Nephrolithiasis: number of subjects” value (through Week 56) was 0, the “Neutropenia: % of subjects” value (through Week 56) was “(4.7%)” and the “Neutropenia: number of subjects” value (through Week 56) was 2. The “Night sweats: % of subjects” value (through Week 56) was “(2.3%)”, the “Night sweats: number of subjects” value (through Week 56) was 1 and the “Non-cardiac chest pain: % of subjects” value (through Week 56) was “(2.3%)”. The “Non-cardiac chest pain: number of subjects” value (through Week 56) was 1, the “Ocular cyst: number of subjects” value (through Week 56) was 0 and the “Oedema peripheral: % of subjects” value (through Week 56) was “(2.3%)”. The “Oedema peripheral: number of subjects” value (through Week 56) was 1, the “Oropharyngeal pain: number of subjects” value (through Week 56) was 0 and the “Procedural pain: number of subjects” value (through Week 56) was 0. For the same compound, the “Productive cough: number of subjects” value (through Week 56) was 0, the “Proteinuria: number of subjects” value (through Week 56) was 0 and the “Pruritus: % of subjects” value (through Week 56) was “(2.3%)”. The “Pruritus: number of subjects” value (through Week 56) was 1, the “Psoriasis: number of subjects” value (through Week 56) was 0 and the “Psychiatric disorders: number of subjects” value (through Week 56) was 0. For the same compound, the “Pyrexia: number of subjects” value (through Week 56) was 0, the “Rash pruritic: number of subjects” value (through Week 56) was 0 and the “Renal and urinary disorders: % of subjects” value (through Week 56) was “(2.3%)”. For the same compound, the “Renal and urinary disorders: number of subjects” value (through Week 56) was 1.
